Entries after “also recorded” stand apart in the source; their conditions may differ.
Assays:
Format in all cases: cell-based, human
HEK-PDK1 cells = assay: Tumor sphere formation in HEK-PDK1 cells; details: 5 nM BI2536 for 7 days
HEK-TERV cells = assay: Apoptotic assay in HEK-TERV cells; details: 10 nM for 24 h; PDK1-transformed vs control or PI3K (E545)-transformed cells
SW480 and DLD1 cells = assay: Apoptotic assay in SW480 and DLD1 cells; details: BI2536 10 nM plus BEZ 235 100 nM, 48 hr
DLD1 and SW480 cells [1] = assay: Monolayer dense foci / colony formation of DLD1 and SW480 cells; details: monolayer colony formation, 12 days
Experimental: For DLD1 and HCT116 inducible cells foci formation assay, 1×10^4 cells were seeded on 6-well plate with or without treatment with Dox or rapamcycin. […]

DLD1 and SW480 cells [2] = assay: Cell viability of DLD1 and SW480 cells under drug combinations; details: SW480 and DLD1 cells, BI 2536 10 nM plus BEZ 235 10 nM
Experimental: Cell viability was measured using CellTiter-Glo™ Luminescent Cell Viability Assay (Promega).
In brief, 1000 cells were seeded in 96-well plate and the cell number was measured following manufacturer's instruction. To detect the senescence in DLD1-tet on cells, cells were treated with Dox for 48 hr and SA-β-Gal staining was performed according to the protocol of Senescence Detection kit (BioVision). Cell cycle analysis was done by DNA content quantification.

CC[C@@H]1C(=O)N(C)c2cnc(Nc3ccc(C(=O)NC4CCN(C)CC4)cc3OC)nc2N1C1CCCC1 [BI2536]
tumor sphere formation (HEK-PDK1 cells): blocks the tumor sphere formation; also recorded: abolished the PDK1-driven tumorspheres formation
apoptosis (HEK-TERV cells): selectively induced apoptosis in PDK1-transformed cells
apoptosis in combination with BEZ235 (SW480 and DLD1 cells): strong synergistic
long term colony formation in combination with BEZ235 (DLD1 and SW480 cells [1]): strong synergistic
growth inhibition in combination with BEZ235 (DLD1 and SW480 cells [2]): strong synergistic growth inhibition

Source: US9249466B2, “Methods and compositions for treating cancer” (Agency for Science, Technology and Research, priority 2010, dated 2016)
